Experimental data from patent publication US20100016343A1 (WYETH, priority 2008, published 2010).
Where two headings read alike, the source gives them in different places.

Key:
CYP2C9 = CYP2C9 (Homo sapiens, UniProt P11712); test: CYP2C9 % inhibition; type: in vitro ADME
[1] = biological target: T1, alpha3 (ganglionic) nACh receptors (Homo sapiens, UniProt P30926+P32297); test: calcium-monitoring FLIPR selectivity assay using the native SH-SY5Y cell line; type: cell-based; conditions: read-out: Alpha 3 EC50
T1 construct: using the native SH-SY5Y cell line; endogenous in cells; host or cells: SH-SY5Y
Description: Functional FLIPR assays were developed in order to test the selectivity of compounds against the alpha1 (muscular) and alpha3 (ganglionic) nACh receptors and the structurally related 5-HT3 receptor. […] In order to test selectivity against the 5-HT3 receptor, a recombinant cell line was constructed expressing the human 5-HT3A receptor in HEK 293 cells and a calcium-monitoring FLIPR assay employed.

CYP2D6 = CYP2D6 (Homo sapiens, UniProt P10635); test: CYP2D6 % inhibition; type: in vitro ADME
CYP3A4 = CYP3A4 (Homo sapiens, UniProt P08684); test: CYP3A4 % inhibition; type: in vitro ADME
rat-alpha7-nAChR = biological target: T2, rat-alpha7-nAChR (Rattus norvegicus, UniProt Q05941); test: functional FLIPR assay, alpha7 nAChR stably expressed in GH4C1 cells; type: cell-based
T2 construct: expressed in transfected cells
Description: Rat GH4C1 cells were then transfected with the rat receptor, cloned and analyzed for functional alpha7 nicotinic receptor expression employing a FLIPR assay to measure changes in intracellular calcium concentrations.
The FLIPR system allows the measurements of real time Ca^2+-concentration changes in living cells using a Ca^2+ sensitive fluorescence dye (such as Fluo4). This instrument enables the screening for agonists and antagonists for alpha 7 nAChR channels stably expressed in GH4C1 cells.
GH4C1 cells stably transfected with rat-alpha7-nAChR (see above) were used. These cells are poorly adherent and therefore pretreatment of flasks and plates with poly-D-lysine was carried out. Cells are grown in 150 cm^2 T-flasks, filled with 30 ml of medium at 37° C. and 5% CO2.
EC50 and IC50 values were calculated using the IDBS XLfit4.1 software package employing a sigmoidal concentration-response (variable slope) equation:
Y=Bottom+((Top−Bottom)/(1+((EC50/X)̂HillSlope))
Certain compounds of the present disclosure were tested using the functional FLIPR primary screening assay employing the stable recombinant GH4C1 cell line expressing the alpha7 nAChR.

[2] = GH4C1 cell line expressing the alpha7 nAChR, concentration-response curves, read-out: Alpha 7 EC50

T1 sequence (P32297 32-505): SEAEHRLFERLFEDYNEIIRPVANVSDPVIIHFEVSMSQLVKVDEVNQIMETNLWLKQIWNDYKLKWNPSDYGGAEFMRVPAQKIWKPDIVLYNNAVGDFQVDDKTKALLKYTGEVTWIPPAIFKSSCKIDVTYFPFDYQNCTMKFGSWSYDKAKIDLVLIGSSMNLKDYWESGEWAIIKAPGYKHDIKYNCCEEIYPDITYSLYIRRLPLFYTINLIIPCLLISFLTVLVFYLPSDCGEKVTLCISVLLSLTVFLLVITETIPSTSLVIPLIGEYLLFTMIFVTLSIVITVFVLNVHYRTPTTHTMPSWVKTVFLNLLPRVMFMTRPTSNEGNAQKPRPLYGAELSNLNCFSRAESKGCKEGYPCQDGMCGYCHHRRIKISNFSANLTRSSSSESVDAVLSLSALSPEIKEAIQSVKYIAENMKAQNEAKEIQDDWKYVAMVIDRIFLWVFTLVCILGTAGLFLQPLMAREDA
T1 sequence (P30926 22-498): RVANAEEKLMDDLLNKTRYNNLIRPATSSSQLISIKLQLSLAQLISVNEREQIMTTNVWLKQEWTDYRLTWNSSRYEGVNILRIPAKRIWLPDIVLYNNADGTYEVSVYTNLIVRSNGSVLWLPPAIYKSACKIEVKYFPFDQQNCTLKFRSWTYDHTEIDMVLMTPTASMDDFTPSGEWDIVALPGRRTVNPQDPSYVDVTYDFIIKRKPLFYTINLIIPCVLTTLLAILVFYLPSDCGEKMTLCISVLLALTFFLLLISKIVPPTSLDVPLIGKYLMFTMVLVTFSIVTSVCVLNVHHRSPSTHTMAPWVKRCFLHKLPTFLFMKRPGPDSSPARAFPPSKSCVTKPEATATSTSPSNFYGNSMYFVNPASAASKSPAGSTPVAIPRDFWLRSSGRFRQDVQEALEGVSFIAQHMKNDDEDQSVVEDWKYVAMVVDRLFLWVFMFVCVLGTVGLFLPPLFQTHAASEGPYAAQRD
T2 sequence (Q05941 23-502): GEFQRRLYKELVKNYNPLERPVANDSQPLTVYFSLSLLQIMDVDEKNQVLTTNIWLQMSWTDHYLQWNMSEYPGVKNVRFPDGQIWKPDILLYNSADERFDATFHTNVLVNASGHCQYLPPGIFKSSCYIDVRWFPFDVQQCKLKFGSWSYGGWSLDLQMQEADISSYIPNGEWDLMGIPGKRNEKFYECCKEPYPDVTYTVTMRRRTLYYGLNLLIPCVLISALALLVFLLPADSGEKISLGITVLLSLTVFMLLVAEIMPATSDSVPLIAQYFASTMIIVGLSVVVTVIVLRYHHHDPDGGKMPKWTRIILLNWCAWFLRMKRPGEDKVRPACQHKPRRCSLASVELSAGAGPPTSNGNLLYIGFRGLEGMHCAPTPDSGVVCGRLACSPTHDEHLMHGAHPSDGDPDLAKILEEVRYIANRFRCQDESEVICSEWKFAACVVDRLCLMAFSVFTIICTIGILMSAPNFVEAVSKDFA
Chain of CYP2C9 (P11712 whole entry, species assumed): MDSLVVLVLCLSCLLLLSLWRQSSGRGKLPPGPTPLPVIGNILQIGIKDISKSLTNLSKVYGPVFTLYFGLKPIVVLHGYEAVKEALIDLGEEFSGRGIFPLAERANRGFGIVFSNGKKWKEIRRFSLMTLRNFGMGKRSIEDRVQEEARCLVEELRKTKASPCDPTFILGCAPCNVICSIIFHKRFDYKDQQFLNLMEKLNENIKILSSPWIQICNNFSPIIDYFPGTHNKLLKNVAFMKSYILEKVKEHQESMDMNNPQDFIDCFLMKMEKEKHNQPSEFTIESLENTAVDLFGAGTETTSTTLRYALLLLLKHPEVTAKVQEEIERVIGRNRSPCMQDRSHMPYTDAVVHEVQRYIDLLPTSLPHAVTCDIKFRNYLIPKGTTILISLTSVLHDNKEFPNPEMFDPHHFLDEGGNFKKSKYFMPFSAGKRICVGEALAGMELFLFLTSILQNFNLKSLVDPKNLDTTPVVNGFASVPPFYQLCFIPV
Chain of CYP2D6 (P10635 whole entry, species assumed): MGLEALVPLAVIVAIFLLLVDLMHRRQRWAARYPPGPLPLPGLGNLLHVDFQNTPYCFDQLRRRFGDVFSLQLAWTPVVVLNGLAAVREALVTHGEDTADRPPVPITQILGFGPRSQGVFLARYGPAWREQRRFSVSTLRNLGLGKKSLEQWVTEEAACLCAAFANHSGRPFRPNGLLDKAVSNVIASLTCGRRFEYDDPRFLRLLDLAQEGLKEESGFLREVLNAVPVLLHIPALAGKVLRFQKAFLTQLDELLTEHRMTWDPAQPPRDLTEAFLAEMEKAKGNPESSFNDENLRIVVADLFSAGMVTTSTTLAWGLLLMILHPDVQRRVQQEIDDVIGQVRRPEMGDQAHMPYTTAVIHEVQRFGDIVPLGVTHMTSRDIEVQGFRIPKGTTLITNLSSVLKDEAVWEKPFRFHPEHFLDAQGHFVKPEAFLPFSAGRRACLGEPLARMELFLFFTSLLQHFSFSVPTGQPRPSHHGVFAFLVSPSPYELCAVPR
Chain of CYP3A4 (P08684 whole entry, species assumed): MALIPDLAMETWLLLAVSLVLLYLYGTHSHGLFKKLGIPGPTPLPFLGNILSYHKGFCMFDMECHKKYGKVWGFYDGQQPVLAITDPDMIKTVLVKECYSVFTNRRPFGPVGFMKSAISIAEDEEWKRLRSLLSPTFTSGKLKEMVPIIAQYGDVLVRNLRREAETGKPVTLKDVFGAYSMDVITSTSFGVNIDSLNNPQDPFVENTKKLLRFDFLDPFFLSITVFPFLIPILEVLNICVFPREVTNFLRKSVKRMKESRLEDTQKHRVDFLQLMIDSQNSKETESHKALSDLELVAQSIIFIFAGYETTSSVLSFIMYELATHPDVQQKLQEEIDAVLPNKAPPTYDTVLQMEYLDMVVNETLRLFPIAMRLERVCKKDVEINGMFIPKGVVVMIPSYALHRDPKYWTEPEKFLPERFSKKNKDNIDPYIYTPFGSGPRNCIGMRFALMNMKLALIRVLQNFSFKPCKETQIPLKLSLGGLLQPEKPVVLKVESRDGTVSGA

SMILES | CYP2C9 % inhibition (CYP2C9) [%] | EC50 [1] [nM] | CYP2D6 % inhibition (CYP2D6) [%] | CYP3A4 % inhibition (CYP3A4) [%] | EC50 (rat-alpha7-nAChR; [2]) [nM] | EC50 (rat-alpha7-nAChR; assay validation with agonists, alpha7 nAChR in GH4C1 cells, concentration range 0.001 to 30 microM, read-out: EC50) [nM]
O=C(NCCCCN1CCCCC1)Nc1ccc(-c2ccc(F)cc2)cc1 | −16 | 1730 | 65 | −13 | 220 | –
O=C(NCCCC[N+]1([O-])CCCCC1)Nc1ccc(-c2ccc(F)cc2)nc1 | – | 9800 | – | – | 460 | –
O=C(NCCCCN1CCCCC1)Nc1ccc(-c2ccc(F)nc2)nc1 | −10 | – | 8 | −19 | 720 | –
O=C(NCCCCN1CCCCC1)Nc1ccc(-c2ccc(F)nc2)cc1 | −18 | 1210 | 21 | −22 | 130 | –
COc1ccc(-c2ccc(NC(=O)NCCCCN3CCCCC3)cn2)cc1 | −15 | 4120 | 54 | −8 | 260 | –
COc1ccc(-c2ccc(NC(=O)NCCCCN3CCCCC3)cc2)cc1 | −14 | 1770 | 97 | 32 | 220 | –
O=C(NCCCCN1CCCCC1)Nc1ccc(-c2ccc3c(c2)OCO3)nc1 | 6 | – | 79 | 65 | 140 | –
O=C(NCCCCN1CCCCC1)Nc1ccc(-c2ccc3c(c2)OCO3)cc1 | 0 | 1720 | 97 | 74 | 100 | –
O=C(NCCCCN1CCCCC1)Nc1ccc(-c2ccncc2)nc1 | 1 | – | 12 | −1 | 400 | –
O=C(NCCCCN1CCCCC1)Nc1ccc(-c2ccncc2)cc1 | 6 | 2950 | 48 | 17 | 180 | –
O=C(NCCCCN1CCCCC1)Nc1ccc(-c2ccccc2)nc1 | −4 | 10100 | 6 | −21 | 90 | –
O=C(NCCCCN1CCCCC1)Nc1ccc(-c2ccccc2)cc1 | 2 | 2840 | 64 | 51 | 310 | –
C[N+]1(C)CCN(c2ccccc2)CC1 [DMPP, reference compound] | – | – | – | – | – | 980 ± 470
COc1ncccc1-c1ccc(NC(=O)NCCCCN2CCCCC2)cn1 [drawing 62] | −12 | 15700 | 8 | −4 | – | –
COc1ncccc1-c1ccc(NC(=O)NCCCCN2CCCCC2)cn1 [drawing 63] | −36 | 5670 | 8 | −21 | – | –
